From patent publication US9738634B2, “Heterocyclic amide compound and herbicide” (SYNGENTA PARTICIPATIONS AG, priority 2013, dated 2017)

Tests used:
Assay type in all cases: in vivo
common wind-grass [1] = assay: Test Example 3: weedkilling efficacy through soil treatment; J: common wind-grass; conditions: treatment dosage 315 g/ha
Summary of the method: (§1)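 Crop and weed responses were judged three weeks after a uniform surface spray of the water-diluted emulsion at the given g/ha rate. Seeds sat beneath about 1.5 cm of sterilized diluvial soil, and boxes stood in a greenhouse at 25 to 30° C.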

common wind-grass [2] = assay: Test Example 4: weedkilling efficacy by foliar treatment; J: common wind-grass; conditions: treatment dosage 315 g/ha
Summary of the method: (§2)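 Seeds are spot-sown into sterilized diluvial soil and covered with about 1.5 cm of soil. After 14 days' greenhouse growth at 25 to 30° C, plants are sprayed on stems and leaves with diluted emulsion at the stated g/ha rate, then scored at 3 weeks.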

oval-leafed pondweed [3] = assay: Test Example 1: weedkilling efficacy, preemergent weed treatment in the submerged state; C: oval-leafed pondweed; conditions: treatment dosage 252 g/ha
Summary of the method: (§3)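 Pre-emergence paddy test: weed seeds sown in submerged alluvial soil (4 cm water), 2.5-leaf rice transplanted, water-diluted emulsion applied to water surface at sowing at stated g/ha. Scored at 3 weeks, greenhouse 25–30 °C.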

Italian ryegrass [4] = assay: Test Example 3: weedkilling efficacy through soil treatment; I: Italian ryegrass; conditions: treatment dosage 315 g/ha
Summary of the method: as §1

redroot pigweed [5] = assay: Test Example 4: weedkilling efficacy by foliar treatment; L: redroot pigweed; conditions: treatment dosage 315 g/ha
Summary of the method: as §2

bulrush [6] = assay: Test Example 1: weedkilling efficacy, preemergent weed treatment in the submerged state; B: bulrush; conditions: treatment dosage 252 g/ha
Summary of the method: as §3

rapeseed [7] = assay: Test Example 3: soil treatment, effect on crop; g: rapeseed; conditions: treatment dosage 315 g/ha
Summary of the method: as §1

corn [8] = assay: Test Example 4: foliar treatment, effect on crop; c: corn; conditions: treatment dosage 315 g/ha
Summary of the method: as §2

beet [9] = assay: Test Example 4: foliar treatment, effect on crop; f: beet; conditions: treatment dosage 315 g/ha
Summary of the method: as §2

crabgrass [10] = assay: Test Example 3: weedkilling efficacy through soil treatment; D: crabgrass; conditions: treatment dosage 315 g/ha
Summary of the method: as §1

redroot pigweed [11] = assay: Test Example 3: weedkilling efficacy through soil treatment; L: redroot pigweed; conditions: treatment dosage 315 g/ha
Summary of the method: as §1

wheat [12] = assay: Test Example 3: soil treatment, effect on crop; e: wheat; conditions: treatment dosage 315 g/ha
Summary of the method: as §1

corn [13] = assay: Test Example 3: soil treatment, effect on crop; c: corn; conditions: treatment dosage 315 g/ha
Summary of the method: as §1

green foxtail [14] = assay: Test Example 4: weedkilling efficacy by foliar treatment; E: green foxtail; conditions: treatment dosage 315 g/ha
Summary of the method: as §2

wild oat [15] = assay: Test Example 4: weedkilling efficacy by foliar treatment; G: wild oat; conditions: treatment dosage 315 g/ha
Summary of the method: as §2

barnyard grass [16] = assay: Test Example 3: weedkilling efficacy through soil treatment; F: barnyard grass; conditions: treatment dosage 315 g/ha
Summary of the method: as §1

Indian mallow [17] = assay: Test Example 3: weedkilling efficacy through soil treatment; K: Indian mallow; conditions: treatment dosage 315 g/ha
Summary of the method: as §1

directly sown rice [18] = assay: Test Example 3: soil treatment, effect on crop; b: directly sown rice; conditions: treatment dosage 315 g/ha
Summary of the method: as §1

transplanted rice = assay: Test Example 1: preemergent weed treatment in the submerged state, effect on crop; a: transplanted rice; conditions: treatment dosage 252 g/ha
Summary of the method: as §3

chickweed [19] = assay: Test Example 4: weedkilling efficacy by foliar treatment; N: chickweed; conditions: treatment dosage 315 g/ha
Summary of the method: as §2

wild oat [20] = assay: Test Example 3: weedkilling efficacy through soil treatment; G: wild oat; conditions: treatment dosage 315 g/ha
Summary of the method: as §1

black-grass [21] = assay: Test Example 4: weedkilling efficacy by foliar treatment; H: black-grass; conditions: treatment dosage 315 g/ha
Summary of the method: as §2

soybean [22] = assay: Test Example 4: foliar treatment, effect on crop; d: soybean; conditions: treatment dosage 315 g/ha
Summary of the method: as §2

barnyard grass [23] = assay: Test Example 4: weedkilling efficacy by foliar treatment; F: barnyard grass; conditions: treatment dosage 315 g/ha
Summary of the method: as §2

barnyard grass [24] = assay: Test Example 2: weedkilling efficacy, growth period weed treatment in the submerged state; A: barnyard grass; conditions: treatment dosage 252 g/ha
Summary of the method: (§4)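 Seedlings at 1-2 leaves in 4 cm-deep submerged alluvial soil received emulsion formulations on the water surface, dosed per hectare; effects were judged 3 weeks on.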

birds-eye speedwell [25] = assay: Test Example 4: weedkilling efficacy by foliar treatment; p: birds-eye speedwell; conditions: treatment dosage 315 g/ha
Summary of the method: as §2

Indian mallow [26] = assay: Test Example 4: weedkilling efficacy by foliar treatment; K: Indian mallow; conditions: treatment dosage 315 g/ha
Summary of the method: as §2

soybean [27] = assay: Test Example 3: soil treatment, effect on crop; d: soybean; conditions: treatment dosage 315 g/ha
Summary of the method: as §1

bulrush [28] = assay: Test Example 2: weedkilling efficacy, growth period weed treatment in the submerged state; B: bulrush; conditions: treatment dosage 252 g/ha
Summary of the method: as §4

catchweed [29] = assay: Test Example 4: weedkilling efficacy by foliar treatment; O: catchweed; conditions: treatment dosage 315 g/ha
Summary of the method: as §2

chickweed [30] = assay: Test Example 3: weedkilling efficacy through soil treatment; N: chickweed; conditions: treatment dosage 315 g/ha
Summary of the method: as §1

catchweed [31] = assay: Test Example 3: weedkilling efficacy through soil treatment; O: catchweed; conditions: treatment dosage 315 g/ha
Summary of the method: as §1

rapeseed [32] = assay: Test Example 4: foliar treatment, effect on crop; g: rapeseed; conditions: treatment dosage 315 g/ha
Summary of the method: as §2

green foxtail [33] = assay: Test Example 3: weedkilling efficacy through soil treatment; E: green foxtail; conditions: treatment dosage 315 g/ha
Summary of the method: as §1

wheat [34] = assay: Test Example 4: foliar treatment, effect on crop; e: wheat; conditions: treatment dosage 315 g/ha
Summary of the method: as §2

crabgrass [35] = assay: Test Example 4: weedkilling efficacy by foliar treatment; D: crabgrass; conditions: treatment dosage 315 g/ha
Summary of the method: as §2

Italian ryegrass [36] = assay: Test Example 4: weedkilling efficacy by foliar treatment; I: Italian ryegrass; conditions: treatment dosage 315 g/ha
Summary of the method: as §2

birds-eye speedwell [37] = assay: Test Example 3: weedkilling efficacy through soil treatment; p: birds-eye speedwell; conditions: treatment dosage 315 g/ha
Summary of the method: as §1

directly sown rice [38] = assay: Test Example 4: foliar treatment, effect on crop; b: directly sown rice; conditions: treatment dosage 315 g/ha
Summary of the method: as §2

beet [39] = assay: Test Example 3: soil treatment, effect on crop; f: beet; conditions: treatment dosage 315 g/ha
Summary of the method: as §1

oval-leafed pondweed [40] = assay: Test Example 2: weedkilling efficacy, growth period weed treatment in the submerged state; C: oval-leafed pondweed; conditions: treatment dosage 252 g/ha
Summary of the method: as §4

black-grass [41] = assay: Test Example 3: weedkilling efficacy through soil treatment; H: black-grass; conditions: treatment dosage 315 g/ha
Summary of the method: as §1

barnyard grass [42] = assay: Test Example 1: weedkilling efficacy, preemergent weed treatment in the submerged state; A: barnyard grass; conditions: treatment dosage 252 g/ha
Summary of the method: as §3

CC1=C(c2ccccc2)C(=O)N(C(C)(C)C(=O)Nc2cc(C)cnc2Cl)CO1 [B-3-04]
J (common wind-grass) weedkilling efficacy grade (common wind-grass [1]): 5 (weed kill ratio 90% or more, (practically complete withering)) | J (common wind-grass) weedkilling efficacy grade (common wind-grass [2]): 4 (weed kill ratio 70% or more, less than 90%) | C (oval-leafed pondweed) weedkilling efficacy grade (oval-leafed pondweed [3]): 4 (weed kill ratio 70% or more, less than 90%) | I (Italian ryegrass) weedkilling efficacy grade (Italian ryegrass [4]): 5 (weed kill ratio 90% or more, (practically complete withering)) | L (redroot pigweed) weedkilling efficacy grade (redroot pigweed [5]): 0 (weed kill ratio 5% or less (practically no effect)) | B (bulrush) weedkilling efficacy grade (bulrush [6]): 5 (weed kill ratio 90% or more, (practically complete withering)) | g (rapeseed) effect on crop grade (rapeseed [7]): 0 (weed kill ratio 5% or less (practically no effect)) | c (corn) effect on crop grade (corn [8]): 0 (weed kill ratio 5% or less (practically no effect)) | f (beet) effect on crop grade (beet [9]): 2 (weed kill ratio 20% or more, less than 40%) | D (crabgrass) weedkilling efficacy grade (crabgrass [10]): 5 (weed kill ratio 90% or more, (practically complete withering)) | L (redroot pigweed) weedkilling efficacy grade (redroot pigweed [11]): 0 (weed kill ratio 5% or less (practically no effect)) | e (wheat) effect on crop grade (wheat [12]): 0 (weed kill ratio 5% or less (practically no effect)) | c (corn) effect on crop grade (corn [13]): 0 (weed kill ratio 5% or less (practically no effect)) | E (green foxtail) weedkilling efficacy grade (green foxtail [14]): 4 (weed kill ratio 70% or more, less than 90%) | G (wild oat) weedkilling efficacy grade (wild oat [15]): 3 (weed kill ratio 40% or more, less than 70%) | F (barnyard grass) weedkilling efficacy grade (barnyard grass [16]): 5 (weed kill ratio 90% or more, (practically complete withering)) | K (Indian mallow) weedkilling efficacy grade (Indian mallow [17]): 0 (weed kill ratio 5% or less (practically no effect)) | b (directly sown rice) effect on crop grade (directly sown rice [18]): 1 (weed kill ratio 5% or more, less than 20%) | a (transplanted rice) effect on crop grade (transplanted rice): 0 (weed kill ratio 5% or less (practically no effect)) | N (chickweed) weedkilling efficacy grade (chickweed [19]): 3 (weed kill ratio 40% or more, less than 70%) | G (wild oat) weedkilling efficacy grade (wild oat [20]): 3 (weed kill ratio 40% or more, less than 70%) | H (black-grass) weedkilling efficacy grade (black-grass [21]): 3 (weed kill ratio 40% or more, less than 70%) | d (soybean) effect on crop grade (soybean [22]): 0 (weed kill ratio 5% or less (practically no effect)) | F (barnyard grass) weedkilling efficacy grade (barnyard grass [23]): 3 (weed kill ratio 40% or more, less than 70%) | A (barnyard grass) weedkilling efficacy grade (barnyard grass [24]): 4 (weed kill ratio 70% or more, less than 90%) | P (birds-eye speedwell) weedkilling efficacy grade (birds-eye speedwell [25]): 3 (weed kill ratio 40% or more, less than 70%) | K (Indian mallow) weedkilling efficacy grade (Indian mallow [26]): 2 (weed kill ratio 20% or more, less than 40%) | d (soybean) effect on crop grade (soybean [27]): 0 (weed kill ratio 5% or less (practically no effect)) | B (bulrush) weedkilling efficacy grade (bulrush [28]): 4 (weed kill ratio 70% or more, less than 90%) | O (catchweed) weedkilling efficacy grade (catchweed [29]): 2 (weed kill ratio 20% or more, less than 40%) | N (chickweed) weedkilling efficacy grade (chickweed [30]): 3 (weed kill ratio 40% or more, less than 70%) | O (catchweed) weedkilling efficacy grade (catchweed [31]): 2 (weed kill ratio 20% or more, less than 40%) | g (rapeseed) effect on crop grade (rapeseed [32]): 1 (weed kill ratio 5% or more, less than 20%) | E (green foxtail) weedkilling efficacy grade (green foxtail [33]): 5 (weed kill ratio 90% or more, (practically complete withering)) | e (wheat) effect on crop grade (wheat [34]): 0 (weed kill ratio 5% or less (practically no effect)) | D (crabgrass) weedkilling efficacy grade (crabgrass [35]): 3 (weed kill ratio 40% or more, less than 70%) | I (Italian ryegrass) weedkilling efficacy grade (Italian ryegrass [36]): 3 (weed kill ratio 40% or more, less than 70%) | P (birds-eye speedwell) weedkilling efficacy grade (birds-eye speedwell [37]): 4 (weed kill ratio 70% or more, less than 90%) | b (directly sown rice) effect on crop grade (directly sown rice [38]): 0 (weed kill ratio 5% or less (practically no effect)) | f (beet) effect on crop grade (beet [39]): 1 (weed kill ratio 5% or more, less than 20%) | C (oval-leafed pondweed) weedkilling efficacy grade (oval-leafed pondweed [40]): 3 (weed kill ratio 40% or more, less than 70%) | H (black-grass) weedkilling efficacy grade (black-grass [41]): 4 (weed kill ratio 70% or more, less than 90%) | A (barnyard grass) weedkilling efficacy grade (barnyard grass [42]): 5 (weed kill ratio 90% or more, (practically complete withering))
